{"source": "patent US20260062443A1", "about": "(ALEXION PHARMACEUTICALS, INC., priority 2022, published 2026)", "molecular_target": "T1, Human complement C1s enzyme (Homo sapiens, UniProt P09871)", "T1 sequence (P09871 438-688 limits assumed)": "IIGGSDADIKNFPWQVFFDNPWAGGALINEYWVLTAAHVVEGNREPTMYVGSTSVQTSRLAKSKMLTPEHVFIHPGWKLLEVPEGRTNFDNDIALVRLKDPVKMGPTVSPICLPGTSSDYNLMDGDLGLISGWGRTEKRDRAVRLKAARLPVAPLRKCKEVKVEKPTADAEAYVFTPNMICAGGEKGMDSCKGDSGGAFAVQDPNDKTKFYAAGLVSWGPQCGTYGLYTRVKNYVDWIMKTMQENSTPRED", "T1 sequence (P09871 16-437 partner limits assumed)": "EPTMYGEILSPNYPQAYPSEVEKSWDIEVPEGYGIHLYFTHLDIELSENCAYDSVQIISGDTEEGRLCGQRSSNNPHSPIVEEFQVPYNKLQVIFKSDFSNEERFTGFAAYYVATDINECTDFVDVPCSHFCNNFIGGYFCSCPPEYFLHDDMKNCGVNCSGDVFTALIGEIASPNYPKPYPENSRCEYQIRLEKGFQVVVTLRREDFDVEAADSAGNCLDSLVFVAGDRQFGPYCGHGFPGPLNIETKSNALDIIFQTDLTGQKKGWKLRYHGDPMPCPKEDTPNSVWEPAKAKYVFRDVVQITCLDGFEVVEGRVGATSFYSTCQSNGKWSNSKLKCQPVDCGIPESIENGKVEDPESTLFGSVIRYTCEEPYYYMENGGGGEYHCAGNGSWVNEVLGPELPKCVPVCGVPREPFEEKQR", "assay": "Human C1s enzyme assay", "format": "biochemical", "settings": "human complement C1s enzyme 1.16 nM, substrate Z-L-Lys-SBzl 100 μM, 5 min preincubation; read-out: IC50 (Stars), C1s Inhibiting Activity", "method_in_brief": "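IC50 from nonlinear regression of reaction rates versus compound concentration, with rates taken from A405 recorded at 30 s intervals over 30 min after adding 100 μM Z-L-Lys-SBzl plus 100 μM DTNB. Enzyme was human C1s purified from serum, 1.16 nM, given 5 min compound preincubation at room temperature, pH 7.5 Tris/1 M NaCl.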"}
{"smiles": "C[C@@]12C[C@@H]1N(C(=O)CNC(=O)c1cccc(Oc3ccccc3)c1)[C@H](C(=O)NCc1cc3cnccc3s1)C2", "note": "[Compound 246, (1S,3S,5S)-5-methyl-2-((3-phenoxybenzoyl)glycyl)-N-(thieno[3,2-c]pyridin-2-ylmethyl)-2-azabicyclo[3.1.0]hexane-3-carboxamide]", "values": [{"measurement": "IC50", "value": "< 100", "unit": "nM"}]}
{"smiles": "O=C(NCC(=O)N1C[C@H](OC(F)F)C[C@H]1C(=O)NCc1cnc2[nH]ccc2c1)c1ccc2c(c1)Oc1ccccc1S2", "note": "[Compound 247]", "values": [{"measurement": "IC50", "value": "100 to 1000", "unit": "nM"}]}
{"smiles": "Nc1nc(=O)oc2cc(CNC(=O)[C@@H]3C[C@@H](OC(F)F)CN3C(=O)CNC(=O)c3ccc4c(c3)Oc3ccccc3S4)ccc12", "note": "[Compound 248, (2S,4R)-N-((4-amino-2-oxo-2H-benzo[e][1,3]oxazin-7-yl)methyl)-4-(difluoromethoxy)-1-((phenoxathiine-3-carbonyl)glycyl)pyrrolidine-2-carboxamide]", "values": [{"measurement": "IC50", "value": "> 1000", "unit": "nM"}]}
{"smiles": "O=C(NCC(=O)N1C[C@H](OC(F)F)C[C@H]1C(=O)NCc1ccc2ccncc2c1)c1ccc2c(c1)Oc1ccccc1S2", "note": "[Compound 249, (2S,4R)-4-(difluoromethoxy)-N-(isoquinolin-7-ylmethyl)-1-((phenoxathiine-3-carbonyl)glycyl)pyrrolidine-2-carboxamide]", "values": [{"measurement": "IC50", "value": "> 1000", "unit": "nM"}]}
{"smiles": "C[C@@]12C[C@@H]1N(C(=O)CNC(=O)c1ccc3c(c1)Oc1ccccc1S3)[C@H](C(=O)NCc1cccc(B(O)O)c1)C2", "note": "[Compound 250, (3-(((1S,3S,5S)-5-methyl-2-((phenoxathiine-3-carbonyl)glycyl)-2-azabicyclo[3.1.0]hexane-3-carboxamido)methyl)phenyl) boronic acid]", "values": [{"measurement": "IC50", "value": "> 1000", "unit": "nM"}]}
{"smiles": "C[C@@H](NC(=O)[C@@H]1C[C@@H](OC(F)(F)F)CN1C(=O)CNC(=O)c1ccc2c(c1)Oc1ccccc1S2)c1cc2cnccc2[nH]1", "note": "[Compound 251, (2S,4R)-N-((R)-1-(1H-pyrrolo[3,2-c]pyridin-2-yl)ethyl)-1-((phenoxathiine-3-carbonyl)glycyl)-4-(trifluoromethoxy)pyrrolidine-2-carboxamide]", "values": [{"measurement": "IC50", "value": "< 100", "unit": "nM"}]}
{"smiles": "C[C@@]12C[C@@H]1N(C(=O)CNC(=O)c1cccc(Oc3ccc(F)cc3)c1)[C@H](C(=O)NCc1cc3cnccc3s1)C2", "note": "[Compound 252, (1S,3S,5S)-2-((3-(4-fluorophenoxy)benzoyl)glycyl)-5-methyl-N-(thieno[3,2-c]pyridin-2-ylmethyl)-2-azabicyclo[3.1.0]hexane-3-carboxamide]", "values": [{"measurement": "IC50", "value": "< 100", "unit": "nM"}]}
{"smiles": "O=C(NCC(=O)N1C[C@H](OC(F)F)C[C@H]1C(=O)NCc1cnc2c(c1)CNC2)c1ccc2c(c1)Oc1ccccc1S2", "note": "[Compound 253, (2S,4R)-4-(difluoromethoxy)-N-((6,7-dihydro-5H-pyrrolo[3,4-b]pyridin-3-yl)methyl)-1-((phenoxathiine-3-carbonyl)glycyl)pyrrolidine-2-carboxamide]", "values": [{"measurement": "IC50", "value": "100 to 1000", "unit": "nM"}]}
{"smiles": "O=C(NCC(=O)N1C[C@H](OC(F)F)C[C@H]1C(=O)NCc1cc2cnccc2s1)c1cccc(Oc2ccc(F)cc2)c1", "note": "[Compound 254, (2S,4R)-4-(difluoromethoxy)-1-((3-(4-fluorophenoxy)benzoyl)glycyl)-N-(thieno[3,2-c]pyridin-2-ylmethyl)pyrrolidine-2-carboxamide]", "values": [{"measurement": "IC50", "value": "< 100", "unit": "nM"}]}
{"smiles": "O=C(NCC(=O)N1CC2(C[C@H]1C(=O)NCc1cc3cnccc3s1)OCCO2)c1cccc(Oc2ccc(F)cc2)c1", "note": "[Compound 255, (S)-7-((3-(4-fluorophenoxy)benzoyl)glycyl)-N-(thieno[3,2-c]pyridin-2-ylmethyl)-1,4-dioxa-7-azaspiro[4.4]nonane-8-carboxamide]", "values": [{"measurement": "IC50", "value": "100 to 1000", "unit": "nM"}]}
{"smiles": "O=C(NCC(=O)N1CC2(C[C@H]1C(=O)NCc1cc3cnccc3s1)OCCO2)c1cccc(Oc2ccccc2)c1", "note": "[Compound 256, (S)-7-((3-phenoxybenzoyl)glycyl)-N-(thieno[3,2-c]pyridin-2-ylmethyl)-1,4-dioxa-7-azaspiro[4.4]nonane-8-carboxamide]", "values": [{"measurement": "IC50", "value": "< 100", "unit": "nM"}]}
{"smiles": "O=C(NCC(=O)N1C[C@H](OC(F)F)C[C@H]1C(=O)NCc1cnc2c(c1)NCC2)c1ccc2c(c1)Oc1ccccc1S2", "note": "[Compound 257, (2S,4R)-4-(difluoromethoxy)-N-((2,3-dihydro-1H-pyrrolo[3,2-b]pyridin-6-yl)methyl)-1-((phenoxathiine-3-carbonyl)glycyl)pyrrolidine-2-carboxamide]", "values": [{"measurement": "IC50", "value": "> 1000", "unit": "nM"}]}
{"smiles": "O=C(NCC(=O)N1C[C@H](OC(F)F)C[C@H]1C(=O)NCc1ccc2[nH]cnc2n1)c1ccc2c(c1)Oc1ccccc1S2", "note": "[Compound 258, (2S,4R)-N-((1H-imidazo[4,5-b]pyridin-5-yl)methyl)-4-(difluoromethoxy)-1-((phenoxathiine-3-carbonyl)glycyl)pyrrolidine-2-carboxamide]", "values": [{"measurement": "IC50", "value": "> 1000", "unit": "nM"}]}
{"smiles": "O=C(NCC(=O)N1C[C@H](OC(F)F)C[C@H]1C(=O)NCc1cc2cnccc2[nH]1)c1cccc(Oc2ccc(F)cc2F)c1", "note": "[Compound 259, (2S,4R)-N-((1H-pyrrolo[3,2-c]pyridin-2-yl)methyl)-4-(difluoromethoxy)-1-((3-(2,4-difluorophenoxy)benzoyl)glycyl)pyrrolidine-2-carboxamide]", "values": [{"measurement": "IC50", "value": "< 100", "unit": "nM"}]}
{"smiles": "Cc1ccc(Oc2cccc(C(=O)NCC(=O)N3C[C@H](OC(F)F)C[C@H]3C(=O)NCc3cc4cnccc4[nH]3)c2)c(F)c1", "note": "[Compound 260, (2S,4R)-N-((1H-pyrrolo[3,2-c]pyridin-2-yl)methyl)-4-(difluoromethoxy)-1-((3-(2-fluoro-4-methylphenoxy)benzoyl)glycyl) pyrrolidine-2-carboxamide]", "values": [{"measurement": "IC50", "value": "< 100", "unit": "nM"}]}
{"smiles": "O=C(NCC(=O)N1CC=C[C@H]1C(=O)NCc1cc2cnccc2[nH]1)c1ccc2c(c1)Oc1ccccc1S2", "note": "[Compound 261, (S)-N-((1H-pyrrolo[3,2-c]pyridin-2-yl)methyl)-1-((phenoxathiine-3-carbonyl)glycyl)-2,5-dihydro-1H-pyrrole-2-carboxamide]", "values": [{"measurement": "IC50", "value": "< 100", "unit": "nM"}]}
{"smiles": "O=C(NCC(=O)N1C[C@H](OC(F)F)C[C@H]1C(=O)NCc1cnc2cn[nH]c2c1)c1ccc2c(c1)Oc1ccccc1S2", "note": "[Compound 262, (2S,4R)-N-((1H-pyrazolo[4,3-b]pyridin-6-yl)methyl)-4-(difluoromethoxy)-1-((phenoxathiine-3-carbonyl)glycyl)pyrrolidine-2-carboxamide]", "values": [{"measurement": "IC50", "value": "> 1000", "unit": "nM"}]}
{"smiles": "C[C@@]12C[C@@H]1N(C(=O)CNC(=O)c1ccc3c(c1)Oc1ccccc1S3)[C@H](C(=O)NCc1ccc(B(O)O)cc1)C2", "note": "[Compound 263, (4-(((1S,3S,5S)-5-methyl-2-((phenoxathiine-3-carbonyl)glycyl)-2-azabicyclo[3.1.0]hexane-3-carboxamido)methyl)phenyl) boronic acid]", "values": [{"measurement": "IC50", "value": "> 1000", "unit": "nM"}]}
{"smiles": "O=C(NCC(=O)N1C[C@H](OC(F)F)C[C@H]1C(=O)NCc1ccc2c(n1)CCN2)c1ccc2c(c1)Oc1ccccc1S2", "note": "[Compound 264, (2S,4R)-4-(difluoromethoxy)-N-((2,3-dihydro-1H-pyrrolo[3,2-b]pyridin-5-yl)methyl)-1-((phenoxathiine-3-carbonyl)glycyl)pyrrolidine-2-carboxamide]", "values": [{"measurement": "IC50", "value": "> 1000", "unit": "nM"}]}
{"smiles": "O=C(NCC(=O)N1C[C@H](OC(F)F)C[C@H]1C(=O)NCc1ccc2c(n1)NCC2)c1ccc2c(c1)Oc1ccccc1S2", "note": "[Compound 265, (2S,4R)-4-(difluoromethoxy)-N-((2,3-dihydro-1H-pyrrolo[2,3-b]pyridin-6-yl)methyl)-1-((phenoxathiine-3-carbonyl)glycyl)pyrrolidine-2-carboxamide]", "values": [{"measurement": "IC50", "value": "> 1000", "unit": "nM"}]}
{"smiles": "O=C(NCC(=O)N1C[C@H](OC(F)F)C[C@H]1C(=O)NCc1cc2cnccn2c1)c1ccc2c(c1)Oc1ccccc1S2", "note": "[Compound 266, (2S,4R)-4-(difluoromethoxy)-1-((phenoxathiine-3-carbonyl)glycyl)-N-(pyrrolo[1,2-a]pyrazin-7-ylmethyl)pyrrolidine-2-carboxamide]", "values": [{"measurement": "IC50", "value": "< 100", "unit": "nM"}]}
{"smiles": "Cc1nccc2[nH]c(CNC(=O)[C@@H]3C[C@]4(C)C[C@@H]4N3C(=O)CNC(=O)c3ccc4c(c3)Oc3ccccc3S4)cc12", "note": "[Compound 267, (1S,3S,5S)-5-methyl-N-((4-methyl-1H-pyrrolo[3,2-c]pyridin-2-yl)methyl)-2-((phenoxathiine-3-carbonyl)glycyl)-2-azabicyclo[3.1.0]hexane-3-carboxamide]", "values": [{"measurement": "IC50", "value": "> 1000", "unit": "nM"}]}
{"smiles": "Cc1cc2[nH]c(CNC(=O)[C@@H]3C[C@]4(C)C[C@@H]4N3C(=O)CNC(=O)c3ccc4c(c3)Oc3ccccc3S4)cc2cn1", "note": "[Compound 268, (1S,3S,5S)-5-methyl-N-((6-methyl-1H-pyrrolo[3,2-c]pyridin-2-yl)methyl)-2-((phenoxathiine-3-carbonyl)glycyl)-2-azabicyclo[3.1.0]hexane-3-carboxamide]", "values": [{"measurement": "IC50", "value": "> 1000", "unit": "nM"}]}
{"smiles": "C[C@@]12C[C@@H]1N(C(=O)CNC(=O)c1cccc(Oc3ccc(F)cc3)c1)[C@H](C(=O)NCc1cc3cnccn3c1)C2", "note": "[Compound 269, (1S,3S,5S)-2-((3-(4-fluorophenoxy)benzoyl)glycyl)-5-methyl-N-(pyrrolo[1,2-a]pyrazin-7-ylmethyl)-2-azabicyclo[3.1.0]hexane-3-carboxamide]", "values": [{"measurement": "IC50", "value": "< 100", "unit": "nM"}]}
